Laboratory results published in patent publication US5527900A, “N3-alkyl-2',5'-0-silylated-3'-spiro-thymidine derivatives” (Stitching Rega VZW, priority 1991, dated 1996).
Converted amounts (≈) assume the structure as drawn. Read-outs that look alike come from different tables or passages of the source.

Columns and labels:
HIV-1 (HTLV-IIIB) = test: Anti-retrovirus activity: inhibition of HIV-1-induced cytopathogenicity in MT-4 cells; type: cell-based; conditions: for EC50: Human immunodeficiency virus 1, IIIB, MT4, 120 h; for S.I. (Selectivity Index): CC50/EC50, MT-4 cells
Text: The viruses used were moloney murine sarcoma virus (MSV), HIV-1 (strain HTLV-IIIB, kindly provided by R. C. Gallo and M. Popovic, National Cancer Institute, Bethesda, Md.), HIV-2 (strain LAV-2(ROD)), kindly provided by L. Montagnier (Pasteur Institute, Paris, France), simian immunodeficiency virus (SIV) (strain SIVMAC251, kindly provided by C. Bruck, RIT-Smith-Kline, Rixensart, Belgium).
(§1) In order to evaluate the inhibitory effects against retrovirus-induced cytopathogenicity in MT-4cells, said cells (5×10^5 cells/ml) were suspended in fresh culture medium and infected with HIV-1, HIV-2 or SIOV at 100 times the cell culture infective dose-50 (CCID50) per ml cell suspension (1 CCID50 being the dose infective for 50% of the cell cultures). Then, 100 μl of the infected cell suspension were transferred to microplate wells, mixed with 100 μl of the appropriate dilutions of the test compounds, and further incubated at 37° C. After 5 days, the number of viable cells was determined in a blood cell-counting chamber by trypan blue staining for both virus-infected and mock-infected cell cultures.

[1] = Cytotoxicity for mock-infected MT-4 cells; conditions: human, mt-4 cells
Description: as §1

MT-4 cells = test: Cytotoxicity for mock-infected MT-4 cells; conditions: for cytotoxicity to MT-4 cells (in words): at 100 μg/ml
Description: as §1

HIV-2 strain (EHO) = test: Activity against HIV-2 strain EHO; type: cell-based
MT-4 cell DNA synthesis = test: Incorporation of radiolabeled precursors into MT-4 cell DNA; type: cell-based; conditions: Homo sapiens, MT4, MT-4 cells, 20 to 24 hr
Text: (§2) The radiolabeled nucleosides [methyl-^3 H]dThd (specific radioactivity: 40 Ci/mmol), [5-^3 H]dUrd (specific radioactivity: 27 Ci/mmol), [5-^3 H]dCyc (specific radioactivity: 18.2 Ci/mmol) and the radiolabeled amino acid L-[4,5-^3 H]leucine (specific radioactivity: 52 Ci/mmol were derived from the Radiochemcial Centre (Amersham, England); [5-^3 H]Urd (specific radioactivity: 21 Ci/mmol) and [5-^3 H]Cyd (specific radioactivity: 21 Ci/mmol) and were obtained from Moravek Biochemicals Inc. (Brea, Calif.)
(§3) The incorporation of [methyl-^3 H]dThd, [5-^3 H]dUrd, [5-^3 H]dCyd, [5-^3 H]Urd, [5-^3 H]Cyd and L-[4,5-^3 H]1eu into TCA-insoluble MT-4 cell material was measured in wells of a 96-well microtiter plate (Falcon-3072, Becton-Dickinson, New Jersey). To each well were added 10^5 MT-4 cells, 0.25 μCi of the radiolabeled precursor and a given amount of test compound. The cells were allowed to proliferate for 20 to 24 hr at 37° C. in a humidified, CO2 -controlled atmosphere. At the end of this incubation period, the contents of the wells (200 μl) were brought onto 25-mm glass fiber filters (type A/E, Gelman Instrument Company, Ann Arbor, Mich.), and mounted on a Millipore 3025 sampling manifold apparatus. The filters were washed twice with 2 ml and 5 ml cold NaCl/Pi (phosphte-buffered saline), twice with 2 and 5 ml cold 10% trichloroacetic acid (TCA), twice with 5 and 7.5 ml cold 5% TCA, and twice with 1 ml cold ethanol.

MT-4 cell RNA synthesis = test: Incorporation of radiolabeled precursors into MT-4 cell RNA; type: cell-based; conditions: Homo sapiens, MT4, MT-4 cells, 20 to 24 hr
Text: as §2, §3

[2] = tested on: MT-4 cell protein synthesis; test: Incorporation of radiolabeled leucine into MT-4 cell protein; type: cell-based; conditions: Homo sapiens, MT4; MT-4 cells, 20 to 24 hr; read-out: IC50, L-[4,5-3H]leucine incorporation
Text: as §2, §3

[3] = tested on: MT-4 cell DNA, RNA or protein synthesis; test: Incorporation of radiolabeled DNA, RNA or protein precursors into TCA-insoluble MT-4 cell material (summary in words); type: cell-based; conditions: for inhibition of incorporation of precursors relative to inhibition of MT-4 cell proliferation / preferential inhibition of incorporation of one precursor over the others: Table 2 discussion; for inhibition of incorporation of dThd, dUrd, dCyd, Urd, Cyd or leucine: at 100 μg/ml
Text: as §2, §3

[4] = Partition coefficient (Pa) between 1-octanol and 10 mM potassium phosphate buffer; type: physicochemical; conditions: 1-octanol / 10 mM potassium phosphate buffer, pH 7.5, 50 μM; for logD at 50 µM: room temperature
Description: Partition of the test compounds between 1-octanol (Merck, Darmstadt, Germany) and 10 mM potassium phosphate buffer, pH, 7.5 (Merck), was measured as described in Balzarini et al., Biochem, Biophys. Res. Commun. 158: 413-422 (1989). Briefly, a 50 μM concentration of the test compound in potassium phosphate buffer was thoroughly mixed with an equal volume of 1-octanol for 30 min at room temperature. Then, the mixture was further equilibrated at room temperature and UV absorption was measured for the aqueous and alcoholic liquid phases. The partition coefficient (Pa) was calculated as the ratio of the compound concentration present in the 1-octanol phase to the compound concentration present in the aqueous phase.

HIV-1 = test: Antiviral activity upon delayed addition to HIV-1-infected MT-4 cells; type: cell-based
Description: as §1
Mt-4 cells were suspended in culture medium, infected with HIV-1 and brought into microplate wells as described above. […] After 5 days, the number of viable cells was determined and the EC50 and CC50 values for the test compounds were defined as described in example 1.

[5] = read-out: IC50, [5-3H]dCyd incorporation
[6] = read-out: IC50, [5-3H]dUrd incorporation
[7] = read-out: IC50, [methyl-3H]dThd incorporation
[8] = read-out: IC50, [5-3H]Cyd incorporation
[9] = read-out: IC50, [5-3H]Urd incorporation

Compound | EC50 (HIV-1 (HTLV-IIIB)) [µg/mL] | S.I. (Selectivity Index) (HIV-1 (HTLV-IIIB); Table 1) | CC50 at 120 h [1] [µg/mL] | presence in the n-octanol phase compared to the aqueous phase [4] | logD at 50 µM [4] | other results
Cc1cn([C@@H]2O[C@H](CO[Si](C)(C)C(C)(C)C)[C@@]3(OS(=O)(=O)C=C3N)[C@H]2O[Si](C)(C)C(C)(C)C)c(=O)nc1N [Compound 16, {1-[2', 5'-Bis-O-(tert-butyldimethylsilyl)-β-D-ribofuranosyl]-5-methyl-cytosine}-3'-spiro-5"-{4"-amino-1",2"-oxathiole-2",2"-dioxide}] | 0.072 (≈ 0.122 µM) | 246 | 17.7 (≈ 30.1 µM) |  |  | inhibition of MT-4 cell proliferation (in words) (MT-4 cells): inhibitory to MT-4 cell proliferation; cytotoxicity to MT-4 cells (in words) (MT-4 cells): not cytotoxic; activity against HIV-2 strain (EHO) (HIV-2 strain (EHO)): inactive; IC50 (MT-4 cell DNA synthesis; [5]): 14 µg/mL (≈ 23.8 µM); IC50 (MT-4 cell DNA synthesis; [6]): 9.9 µg/mL (≈ 16.8 µM); IC50 (MT-4 cell DNA synthesis; [7]): 14 µg/mL (≈ 23.8 µM); IC50 (MT-4 cell RNA synthesis; [8]): 11 µg/mL (≈ 18.7 µM); IC50 (MT-4 cell RNA synthesis; [9]): 8.9 µg/mL (≈ 15.1 µM); IC50 [2]: 13 µg/mL (≈ 22.1 µM); inhibition of incorporation of precursors relative to inhibition of MT-4 cell proliferation [3]: equally inhibitory; preferential inhibition of incorporation of one precursor over the others [3]: neither; inhibition of incorporation of dThd, dUrd, dCyd, Urd, Cyd or leucine [3]: did not markedly inhibit
Cc1cn([C@@H]2O[C@H](COC(=O)c3ccccc3)[C@@]3(OS(=O)(=O)C=C3N)[C@H]2O[Si](C)(C)C(C)(C)C)c(=O)[nH]c1=O [Compound 4] | > 8 | < 2,5 | 20 (≈ 34.5 µM) | more than 95% | > 1.3 | 
Cc1cn([C@@H]2O[C@H](CO)[C@@]3(OS(=O)(=O)C=C3N)[C@H]2O[Si](C)(C)C(C)(C)C)c(=O)[nH]c1=O [Compound 2] | > 40 | < 2,5 | 106 (≈ 223 µM) | more than 95% | > 1.3 | 
Cc1cn([C@@H]2O[C@H](CO[Si](C)(C)C(C)(C)C)[C@@]3(OS(=O)(=O)C=C3N)[C@H]2O)c(=O)[nH]c1=O [Compound 3] | > 20 | < 2 | 45 (≈ 94.6 µM) | more than 95% | > 1.3 | 
Cc1cn([C@@H]2O[C@H](CO)[C@@]3(OS(=O)(=O)C=C3N)[C@H]2O)c(=O)[nH]c1=O [Compound 1] |  |  | > 100 |  | -0.932 | EC50 (HIV-1 (HTLV-IIIB); Table 1, HIV-1 in MT-4 cells, 5 days, read-out: EC50): > 100 µg/mL
C=CCn1c(=O)ccn([C@@H]2O[C@H](CO[Si](C)(C)C(C)(C)C)[C@@]3(OS(=O)(=O)C=C3N)[C@H]2O[Si](C)(C)C(C)(C)C)c1=O [Compound 13, {1-[2', 5'-Bis-O-(tert-butyldimethylsilyl)-62 -D-ribofuranosyl]-3-N-allyl-uracil}-3'-spiro-5"-{4"-amino-1", 2"-oxathiole-2", 2"-dioxide}] | 0.364 (≈ 0.591 µM) | 15 | 5.31 (≈ 8.62 µM) |  |  | 
CC(=O)Nc1ccn([C@@H]2O[C@H](CO[Si](C)(C)C(C)(C)C)[C@@]3(OS(=O)(=O)C=C3N)[C@H]2O[Si](C)(C)C(C)(C)C)c(=O)n1 [Compound 15, {4-N-Acetyl-1-[2', 5'-bis-O-(tert-butyldimethylsilyl)-β-D-ribofuranosyl]cytosine}-3'-spiro-5"-{4"-amino-1",2"-oxathiole-2",2"-dioxide}] | 0.097 (≈ 0.157 µM) | 77 | 7.5 (≈ 12.2 µM) | more than 95% | > 1.3 | 
CC(C)(C)[Si](C)(C)OC[C@H]1O[C@@H](n2ccc(=O)[nH]c2=O)[C@H](O[Si](C)(C)C(C)(C)C)[C@]12OS(=O)(=O)C=C2N [Compound 11, {1-[2', 5'-Bis-O-(tert-butyldimethylsilyl)-β-D-ribofuranosyl]uracil}-3'-spiro-5"-{4"-amino-1", 2"-oxathiole-2", 2"-dioxide}] | 0.114 (≈ 0.198 µM) | 73 | 8.3 (≈ 14.4 µM) | more than 95% | > 1.3 | inhibition of MT-4 cell proliferation (in words) (MT-4 cells): inhibitory to MT-4 cell proliferation; cytotoxicity to MT-4 cells (in words) (MT-4 cells): not cytotoxic; IC50 (MT-4 cell DNA synthesis; [5]): 18 µg/mL (≈ 31.3 µM); IC50 (MT-4 cell DNA synthesis; [6]): 12 µg/mL (≈ 20.8 µM); IC50 (MT-4 cell DNA synthesis; [7]): 38 µg/mL (≈ 66 µM); IC50 (MT-4 cell RNA synthesis; [8]): 11 µg/mL (≈ 19.1 µM); IC50 (MT-4 cell RNA synthesis; [9]): 11 µg/mL (≈ 19.1 µM); IC50 [2]: 14 µg/mL (≈ 24.3 µM); inhibition of incorporation of precursors relative to inhibition of MT-4 cell proliferation [3]: equally inhibitory; preferential inhibition of incorporation of one precursor over the others [3]: neither; inhibition of incorporation of dThd, dUrd, dCyd, Urd, Cyd or leucine [3]: did not markedly inhibit
CC(C)(C)[Si](C)(C)OC[C@H]1O[C@@H](n2cnc3c(N)ncnc32)[C@H](O[Si](C)(C)C(C)(C)C)[C@]12OS(=O)(=O)C=C2N [Compound 17] | 0.162 (≈ 0.271 µM) | 45 | 7.3 (≈ 12.2 µM) |  |  | activity against HIV-2 strain (EHO) (HIV-2 strain (EHO)): inactive
CC(C)(C)[Si](C)(C)OC[C@H]1O[C@@H](n2cc(Br)c(=O)[nH]c2=O)[C@H](O[Si](C)(C)C(C)(C)C)[C@]12OS(=O)(=O)C=C2N [Compound 12] | 0.206 (≈ 0.315 µM) | 11 | 2.35 (≈ 3.59 µM) |  |  | activity against HIV-2 strain (EHO) (HIV-2 strain (EHO)): inactive
C=CCn1c(=O)c(C)cn([C@@H]2O[C@H](CO[Si](C)(C)C(C)(C)C)[C@@]3(OS(=O)(=O)C=C3N)[C@H]2O[Si](C)(C)C(C)(C)C)c1=O [Compound 8, {1-[2', 5'-Bis-O-(tert-butyldimethylsilyl)-β-D-ribofuranosyl]-3-N-allyl-thymine}-3'-spiro-5"{4"-amino-1", 2"-oxathiole-2", 2"-dioxide}] | 0.141 (≈ 0.224 µM) | > 1418 | > 200 | more than 95% | > 1.3 | cytotoxicity to MT-4 cells (in words) (MT-4 cells): not cytotoxic; IC50 (MT-4 cell DNA synthesis; [5]): > 100 µg/mL; IC50 (MT-4 cell DNA synthesis; [6]): > 100 µg/mL; IC50 (MT-4 cell DNA synthesis; [7]): > 100 µg/mL; IC50 (MT-4 cell RNA synthesis; [8]): > 100 µg/mL; IC50 (MT-4 cell RNA synthesis; [9]): > 100 µg/mL; IC50 [2]: > 100 µg/mL; inhibition of incorporation of dThd, dUrd, dCyd, Urd, Cyd or leucine [3]: did not markedly inhibit
CCc1cn([C@@H]2O[C@H](CO[Si](C)(C)C(C)(C)C)[C@@]3(OS(=O)(=O)C=C3N)[C@H]2O[Si](C)(C)C(C)(C)C)c(=O)[nH]c1=O [Compound 10, {1-[2', 5'-Bis-O-(tert-butyldimethylsilyl)-β-D-ribofuranosyl]-5-ethyl-uracil}-3'-spiro-5"-{4"-amino-1",2"-oxathiole-2",2"-dioxide}] | 0.038 (≈ 0.0629 µM) | 82 | 3.2 (≈ 5.3 µM) |  |  | decrease of antiviral activity on delayed addition (HIV-1; addition delayed by 17-24 hours, data not shown): 10 fold; antiviral activity on delayed addition (HIV-1; addition delayed by 41 to 48 hours): almost totally lost
